Tests used:
Test in all cases: KINOMEscan competition binding
Conditions in all cases: compound 10.0 µM
[1] = biological target: MAPK6 (human) (UniProt Q16659)
[2] = biological target: ACVR1 (human) (UniProt Q04771)
[3] = biological target: DCLK3 (human) (UniProt Q9C098)
[4] = biological target: PKMYT1 (human) (UniProt Q99640)
[5] = test system: ABL1 (human), P00519 [F317I]
[6] = biological target: BMP2K (human) (UniProt Q9NSY1)
[7] = biological target: PRKAA1 (human) (UniProt Q13131)
[8] = biological target: MYO3A (human) (UniProt Q8NEV4)
[9] = biological target: AAK1 (human) (UniProt Q2M2I8)
Chain of AAK1 (human) (Q2M2I8 whole entry, looked up): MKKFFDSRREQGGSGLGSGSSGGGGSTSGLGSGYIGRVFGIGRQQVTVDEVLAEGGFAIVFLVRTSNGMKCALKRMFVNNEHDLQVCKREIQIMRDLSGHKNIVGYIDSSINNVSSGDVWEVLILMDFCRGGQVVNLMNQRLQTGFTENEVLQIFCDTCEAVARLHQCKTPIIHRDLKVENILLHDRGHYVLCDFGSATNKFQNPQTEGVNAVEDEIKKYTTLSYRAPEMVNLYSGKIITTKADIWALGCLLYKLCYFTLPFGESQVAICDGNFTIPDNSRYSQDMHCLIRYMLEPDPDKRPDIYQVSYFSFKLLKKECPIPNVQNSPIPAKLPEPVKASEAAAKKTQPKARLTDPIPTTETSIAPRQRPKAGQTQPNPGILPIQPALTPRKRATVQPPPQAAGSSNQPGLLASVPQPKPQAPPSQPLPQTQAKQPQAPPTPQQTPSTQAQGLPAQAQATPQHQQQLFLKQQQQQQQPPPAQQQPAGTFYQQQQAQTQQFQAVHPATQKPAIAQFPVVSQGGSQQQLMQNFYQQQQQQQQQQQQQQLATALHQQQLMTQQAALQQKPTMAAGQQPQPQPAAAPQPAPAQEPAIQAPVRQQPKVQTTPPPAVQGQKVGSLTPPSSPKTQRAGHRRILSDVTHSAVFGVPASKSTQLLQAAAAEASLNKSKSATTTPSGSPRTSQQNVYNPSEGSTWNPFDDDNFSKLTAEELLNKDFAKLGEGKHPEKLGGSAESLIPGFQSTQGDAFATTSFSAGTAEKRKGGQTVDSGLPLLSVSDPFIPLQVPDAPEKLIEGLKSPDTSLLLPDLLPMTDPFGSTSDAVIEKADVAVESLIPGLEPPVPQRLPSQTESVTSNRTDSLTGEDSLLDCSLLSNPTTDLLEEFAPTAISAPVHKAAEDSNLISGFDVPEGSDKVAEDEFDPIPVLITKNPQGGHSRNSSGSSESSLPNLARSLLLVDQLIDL

[10] = biological target: LATS2 (human) (UniProt Q9NRM7)
[11] = biological target: MAP2K2 (human) (UniProt P36507)
[12] = biological target: CDK3 (human) (UniProt Q00526)
Chain of CDK3 (human) (Q00526 whole entry, looked up): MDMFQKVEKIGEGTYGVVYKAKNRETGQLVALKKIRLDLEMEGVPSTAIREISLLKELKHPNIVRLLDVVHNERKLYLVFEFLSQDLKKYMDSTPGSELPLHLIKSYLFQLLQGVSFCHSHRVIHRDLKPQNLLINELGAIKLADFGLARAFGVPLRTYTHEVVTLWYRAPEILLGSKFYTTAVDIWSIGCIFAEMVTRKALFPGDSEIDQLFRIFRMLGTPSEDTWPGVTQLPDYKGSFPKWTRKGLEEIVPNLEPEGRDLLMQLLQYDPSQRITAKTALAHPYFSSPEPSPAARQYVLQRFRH

[13] = biological target: BRSK2 (human) (UniProt Q8IWQ3)
[14] = biological target: MAPKAPK5 (human) (UniProt Q8IW41)
Chain of MAPKAPK5 (human) (Q8IW41 whole entry, looked up): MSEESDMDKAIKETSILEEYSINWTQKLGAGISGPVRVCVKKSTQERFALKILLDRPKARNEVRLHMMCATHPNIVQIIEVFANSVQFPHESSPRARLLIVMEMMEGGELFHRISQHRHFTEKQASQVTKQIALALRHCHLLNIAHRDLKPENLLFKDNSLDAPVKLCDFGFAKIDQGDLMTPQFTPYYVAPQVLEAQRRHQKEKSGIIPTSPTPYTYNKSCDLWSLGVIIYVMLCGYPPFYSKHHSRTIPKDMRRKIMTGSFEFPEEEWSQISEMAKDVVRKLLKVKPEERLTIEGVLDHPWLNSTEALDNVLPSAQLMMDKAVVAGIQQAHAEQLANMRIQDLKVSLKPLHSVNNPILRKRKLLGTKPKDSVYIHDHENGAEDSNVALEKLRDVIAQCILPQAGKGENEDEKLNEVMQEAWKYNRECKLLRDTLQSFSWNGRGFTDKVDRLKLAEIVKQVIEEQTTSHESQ

[15] = biological target: IRAK3 (human) (UniProt Q9Y616)
[16] = biological target: PRKCH (human) (UniProt P24723)
[17] = test system: BRAF (human), P15056 [V600E]
[18] = test system: FLT3 (human), P36888 [D835H]
[19] = biological target: LCK (human) (UniProt P06239)
Chain of LCK (human) (P06239 whole entry, looked up): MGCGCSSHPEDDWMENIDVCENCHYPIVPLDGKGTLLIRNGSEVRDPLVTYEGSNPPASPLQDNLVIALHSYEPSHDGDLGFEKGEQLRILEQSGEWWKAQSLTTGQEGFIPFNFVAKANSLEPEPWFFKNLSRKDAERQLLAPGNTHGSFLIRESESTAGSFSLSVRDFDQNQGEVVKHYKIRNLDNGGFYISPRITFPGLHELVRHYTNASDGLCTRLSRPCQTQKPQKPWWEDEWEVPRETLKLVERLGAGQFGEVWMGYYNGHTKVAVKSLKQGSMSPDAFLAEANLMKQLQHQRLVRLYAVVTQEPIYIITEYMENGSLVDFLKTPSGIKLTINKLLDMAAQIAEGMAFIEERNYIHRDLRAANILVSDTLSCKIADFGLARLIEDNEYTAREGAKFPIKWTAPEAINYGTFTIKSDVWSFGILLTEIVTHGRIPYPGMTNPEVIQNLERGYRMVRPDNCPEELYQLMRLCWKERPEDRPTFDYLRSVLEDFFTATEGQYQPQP

[20] = biological target: ROCK2 (human) (UniProt O75116)
[21] = biological target: MKNK1 (human) (UniProt Q9BUB5)
[22] = biological target: PLK2 (human) (UniProt Q9NYY3)
[23] = biological target: CDC2L2 (human) (UniProt Q9UQ88)
[24] = biological target: RIOK1 (human) (UniProt Q9BRS2)
[25] = biological target: GAK (human) (UniProt O14976)
[26] = biological target: MARK4 (human) (UniProt Q96L34)
[27] = biological target: SIK2 (human) (UniProt Q9H0K1)
[28] = biological target: AKT2 (human) (UniProt P31751)
[29] = biological target: TESK1 (human) (UniProt Q15569)
[30] = biological target: IGF1R (human) (UniProt P08069)
[31] = biological target: TBK1 (human) (UniProt Q9UHD2)
Chain of TBK1 (human) (Q9UHD2 whole entry, looked up): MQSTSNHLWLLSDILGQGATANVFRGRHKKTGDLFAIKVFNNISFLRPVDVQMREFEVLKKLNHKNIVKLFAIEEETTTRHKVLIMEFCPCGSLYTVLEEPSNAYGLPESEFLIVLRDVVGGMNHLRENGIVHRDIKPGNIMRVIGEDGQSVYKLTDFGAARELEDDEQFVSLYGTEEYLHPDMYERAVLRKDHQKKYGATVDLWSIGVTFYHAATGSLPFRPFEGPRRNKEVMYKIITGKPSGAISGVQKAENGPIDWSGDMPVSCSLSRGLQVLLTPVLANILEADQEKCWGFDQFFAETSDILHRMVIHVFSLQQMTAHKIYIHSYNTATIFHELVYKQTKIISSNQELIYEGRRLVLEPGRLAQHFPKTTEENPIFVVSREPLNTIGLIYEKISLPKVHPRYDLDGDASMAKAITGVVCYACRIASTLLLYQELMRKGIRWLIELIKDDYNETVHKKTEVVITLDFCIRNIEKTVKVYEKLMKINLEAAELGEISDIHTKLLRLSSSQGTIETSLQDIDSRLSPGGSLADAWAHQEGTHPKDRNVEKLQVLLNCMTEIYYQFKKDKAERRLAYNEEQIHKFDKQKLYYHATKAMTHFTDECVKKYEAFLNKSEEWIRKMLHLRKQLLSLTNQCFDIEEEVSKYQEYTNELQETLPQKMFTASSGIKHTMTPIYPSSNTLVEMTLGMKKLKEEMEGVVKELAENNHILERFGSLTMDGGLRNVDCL

[32] = test system: ABL1 (human), P00519 [T315I]
[33] = biological target: MST1R (human) (UniProt Q04912)
Chain of MST1R (human) (Q04912 whole entry, looked up): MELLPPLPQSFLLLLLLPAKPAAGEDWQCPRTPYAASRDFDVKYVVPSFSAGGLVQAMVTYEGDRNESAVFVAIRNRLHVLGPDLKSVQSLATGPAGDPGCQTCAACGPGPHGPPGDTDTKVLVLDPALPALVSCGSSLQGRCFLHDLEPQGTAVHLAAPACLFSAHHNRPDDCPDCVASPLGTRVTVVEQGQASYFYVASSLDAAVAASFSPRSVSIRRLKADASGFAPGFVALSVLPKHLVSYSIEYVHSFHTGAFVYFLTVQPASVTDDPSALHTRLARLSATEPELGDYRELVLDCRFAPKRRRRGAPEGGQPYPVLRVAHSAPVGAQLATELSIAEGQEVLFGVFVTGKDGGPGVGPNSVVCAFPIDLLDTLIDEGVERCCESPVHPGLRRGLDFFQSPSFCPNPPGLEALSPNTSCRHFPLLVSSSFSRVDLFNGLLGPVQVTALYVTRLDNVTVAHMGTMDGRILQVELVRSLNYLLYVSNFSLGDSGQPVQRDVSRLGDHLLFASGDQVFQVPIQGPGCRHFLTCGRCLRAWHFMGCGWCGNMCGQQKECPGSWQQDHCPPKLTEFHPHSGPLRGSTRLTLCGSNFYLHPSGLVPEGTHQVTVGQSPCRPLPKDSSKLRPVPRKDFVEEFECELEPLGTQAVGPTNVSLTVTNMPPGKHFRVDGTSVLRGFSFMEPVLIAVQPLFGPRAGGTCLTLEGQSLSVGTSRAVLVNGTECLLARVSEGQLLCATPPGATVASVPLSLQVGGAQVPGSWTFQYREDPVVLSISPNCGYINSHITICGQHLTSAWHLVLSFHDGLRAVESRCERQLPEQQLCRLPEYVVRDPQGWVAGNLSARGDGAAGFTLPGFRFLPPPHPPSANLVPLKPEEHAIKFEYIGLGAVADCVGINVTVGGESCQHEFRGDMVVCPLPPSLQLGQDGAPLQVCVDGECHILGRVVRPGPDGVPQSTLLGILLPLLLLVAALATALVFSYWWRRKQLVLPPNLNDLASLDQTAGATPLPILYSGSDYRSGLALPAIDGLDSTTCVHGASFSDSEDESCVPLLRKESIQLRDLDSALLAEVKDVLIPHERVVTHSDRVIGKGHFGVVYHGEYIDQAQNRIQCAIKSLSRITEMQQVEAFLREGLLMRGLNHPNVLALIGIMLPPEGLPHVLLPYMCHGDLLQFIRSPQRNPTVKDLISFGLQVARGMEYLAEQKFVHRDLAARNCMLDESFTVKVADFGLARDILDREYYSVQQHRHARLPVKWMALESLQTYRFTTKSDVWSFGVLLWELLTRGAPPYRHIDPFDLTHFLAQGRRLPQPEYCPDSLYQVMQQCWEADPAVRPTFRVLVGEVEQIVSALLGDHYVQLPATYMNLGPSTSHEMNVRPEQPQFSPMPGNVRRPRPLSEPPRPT

[34] = biological target: CDC42BPG (human) (UniProt Q6DT37)
[35] = biological target: PLK3 (human) (UniProt Q9H4B4)
[36] = biological target: GRK7 (human) (UniProt Q8WTQ7)
[37] = biological target: PHKG2 (human) (UniProt P15735)
[38] = biological target: CDK2 (human) (UniProt P24941)
[39] = biological target: CAMKK1 (human) (UniProt Q8N5S9)
[40] = biological target: ITK (human) (UniProt Q08881)
[41] = biological target: RIPK2 (human) (UniProt O43353)
[42] = biological target: IKBKE (human) (UniProt Q14164)

Chain of PKMYT1 (human) (Q99640 whole entry, looked up): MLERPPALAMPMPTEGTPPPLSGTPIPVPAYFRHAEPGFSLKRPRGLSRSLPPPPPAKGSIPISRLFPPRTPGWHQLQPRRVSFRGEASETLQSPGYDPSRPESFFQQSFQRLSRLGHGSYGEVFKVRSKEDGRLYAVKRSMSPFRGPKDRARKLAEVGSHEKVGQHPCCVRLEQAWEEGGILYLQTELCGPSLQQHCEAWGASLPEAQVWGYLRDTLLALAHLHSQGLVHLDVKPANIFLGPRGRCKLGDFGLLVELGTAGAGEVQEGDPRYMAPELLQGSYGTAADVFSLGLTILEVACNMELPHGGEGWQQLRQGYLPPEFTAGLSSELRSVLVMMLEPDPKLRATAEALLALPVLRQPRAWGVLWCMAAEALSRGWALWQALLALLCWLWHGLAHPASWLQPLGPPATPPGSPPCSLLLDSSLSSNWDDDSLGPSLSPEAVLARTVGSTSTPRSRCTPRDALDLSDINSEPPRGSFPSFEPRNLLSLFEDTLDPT

Cc1cnc(-c2cnc(NCCNc3ccc(C#N)cn3)nc2-c2ccc(Cl)cc2Cl)[nH]1
kinase still bound, per cent of control [1]: 100% | kinase still bound, per cent of control [2]: 100% | kinase still bound, per cent of control [3]: 34% | kinase still bound, per cent of control [4]: 100% | kinase still bound, per cent of control [5]: 100% | kinase still bound, per cent of control [6]: 99% | kinase still bound, per cent of control [7]: 82% | kinase still bound, per cent of control [8]: 100% | kinase still bound, per cent of control [9]: 100% | kinase still bound, per cent of control [10]: 100% | kinase still bound, per cent of control [11]: 100% | kinase still bound, per cent of control [12]: 89% | kinase still bound, per cent of control [13]: 97% | kinase still bound, per cent of control [14]: 96% | kinase still bound, per cent of control [15]: 100% | kinase still bound, per cent of control [16]: 100% | kinase still bound, per cent of control [17]: 49% | kinase still bound, per cent of control [18]: 74% | kinase still bound, per cent of control [19]: 100% | kinase still bound, per cent of control [20]: 100% | kinase still bound, per cent of control [21]: 100% | kinase still bound, per cent of control [22]: 79% | kinase still bound, per cent of control [23]: 100% | kinase still bound, per cent of control [24]: 100% | kinase still bound, per cent of control [25]: 79% | kinase still bound, per cent of control [26]: 100% | kinase still bound, per cent of control [27]: 100% | kinase still bound, per cent of control [28]: 100% | kinase still bound, per cent of control [29]: 100% | kinase still bound, per cent of control [30]: 100% | kinase still bound, per cent of control [31]: 96% | kinase still bound, per cent of control [32]: 100% | kinase still bound, per cent of control [33]: 100% | kinase still bound, per cent of control [34]: 100% | kinase still bound, per cent of control [35]: 80% | kinase still bound, per cent of control [36]: 91% | kinase still bound, per cent of control [37]: 100% | kinase still bound, per cent of control [38]: 54% | kinase still bound, per cent of control [39]: 100% | kinase still bound, per cent of control [40]: 100% | kinase still bound, per cent of control [41]: 100% | kinase still bound, per cent of control [42]: 98%

Cn1cc(C2=C(c3ccc(Cl)cc3Cl)C(=O)NC2=O)c2ccccc21
kinase still bound, per cent of control [1]: 100% | kinase still bound, per cent of control [2]: 100% | kinase still bound, per cent of control [3]: 66% | kinase still bound, per cent of control [4]: 100% | kinase still bound, per cent of control [5]: 100% | kinase still bound, per cent of control [6]: 58% | kinase still bound, per cent of control [7]: 61% | kinase still bound, per cent of control [8]: 95% | kinase still bound, per cent of control [9]: 26% | kinase still bound, per cent of control [10]: 100% | kinase still bound, per cent of control [11]: 100% | kinase still bound, per cent of control [12]: 14% | kinase still bound, per cent of control [13]: 85% | kinase still bound, per cent of control [14]: 100% | kinase still bound, per cent of control [15]: 100% | kinase still bound, per cent of control [16]: 79% | kinase still bound, per cent of control [17]: 78% | kinase still bound, per cent of control [18]: 32% | kinase still bound, per cent of control [19]: 96% | kinase still bound, per cent of control [20]: 100% | kinase still bound, per cent of control [21]: 84% | kinase still bound, per cent of control [22]: 100% | kinase still bound, per cent of control [23]: 100% | kinase still bound, per cent of control [24]: 79% | kinase still bound, per cent of control [25]: 74% | kinase still bound, per cent of control [26]: 100% | kinase still bound, per cent of control [27]: 89% | kinase still bound, per cent of control [28]: 100% | kinase still bound, per cent of control [29]: 100% | kinase still bound, per cent of control [30]: 95% | kinase still bound, per cent of control [31]: 90% | kinase still bound, per cent of control [32]: 80% | kinase still bound, per cent of control [33]: 100% | kinase still bound, per cent of control [34]: 100% | kinase still bound, per cent of control [35]: 97% | kinase still bound, per cent of control [36]: 51% | kinase still bound, per cent of control [37]: 80% | kinase still bound, per cent of control [38]: 7.4% | kinase still bound, per cent of control [39]: 68% | kinase still bound, per cent of control [40]: 100% | kinase still bound, per cent of control [41]: 94% | kinase still bound, per cent of control [42]: 85%

From the kinase profiling compilation of Christmann-Franck et al. (2016)
